Assay results as given in the NIST ThermoML archive (doi:10.1021/je020189p).
“And” between values parts separate entries of the source, which are not always exact repeats. Identical values can stand only once. Numbers after ± are expanded uncertainties.

Settings: Crystal

[Br-].[Br-].[Br-].[Tb+3] [terbium tribromide]
Settings	vapor or sublimation pressure
904 K	4.79e-05 ± 1.4e-05 kPa
908 K	4.68e-05 ± 1.4e-05 kPa
912 K	3.8e-05 ± 1.2e-05 kPa
915 K	7.59e-05 ± 2.3e-05 kPa and 4.79e-05 ± 1.6e-05 kPa and 4.17e-05 ± 1.4e-05 kPa
917 K	8.13e-05 ± 2.5e-05 kPa
920 K	8.51e-05 ± 2.6e-05 kPa and 8.32e-05 ± 2.5e-05 kPa and 4.79e-05 ± 1.5e-05 kPa
921 K	7.59e-05 ± 2.3e-05 kPa
922 K	8.32e-05 ± 2.5e-05 kPa and 6.17e-05 ± 1.9e-05 kPa
924 K	0.000105 ± 3.2e-05 kPa
925 K	7.24e-05 ± 2.2e-05 kPa
928 K	9.55e-05 ± 3e-05 kPa
930 K	0.000132 ± 4e-05 kPa and 8.51e-05 ± 2.6e-05 kPa
931 K	0.00012 ± 3.6e-05 kPa
933 K	9.55e-05 ± 2.9e-05 kPa
934 K	8.51e-05 ± 2.5e-05 kPa and 0.00012 ± 3.6e-05 kPa
935 K	0.000151 ± 4.5e-05 kPa
937 K	0.000123 ± 4.2e-05 kPa and 0.000138 ± 4.6e-05 kPa
939 K	0.000151 ± 4.5e-05 kPa
940 K	0.000182 ± 5.5e-05 kPa [middle of 4 runs]
941 K	0.000115 ± 3.6e-05 kPa
943 K	0.000141 ± 4.2e-05 kPa
944 K	0.000209 ± 6.5e-05 kPa and 0.000186 ± 5.8e-05 kPa
945 K	0.000186 ± 5.9e-05 kPa
947 K	0.000214 ± 6.4e-05 kPa
948 K	0.00024 ± 7.3e-05 kPa and 0.000141 ± 4.5e-05 kPa
950 K	0.000182 ± 5.6e-05 kPa and 0.000166 ± 5.1e-05 kPa
954 K	0.000295 ± 9.1e-05 kPa
955 K	0.000191 ± 6e-05 kPa and 0.000269 ± 8.3e-05 kPa
956 K	0.000229 ± 7.1e-05 kPa
957 K	0.000331 ± 0.0001 kPa and 0.000229 ± 7e-05 kPa and 0.000275 ± 8.3e-05 kPa
958 K	0.000331 ± 0.0001 kPa and 0.000288 ± 8.7e-05 kPa
960 K	0.000363 ± 0.00011 kPa and 0.000316 ± 9.5e-05 kPa
962 K	0.000347 ± 0.0001 kPa [middle of 4 runs]
964 K	0.000288 ± 8.7e-05 kPa and 0.000389 ± 0.00012 kPa
968 K	0.000295 ± 8.9e-05 kPa
969 K	0.000363 ± 0.00011 kPa
970 K	0.000501 ± 0.00015 kPa
971 K	0.000355 ± 0.00012 kPa
973 K	0.000537 ± 0.00016 kPa and 0.000501 ± 0.00015 kPa
974 K	0.000575 ± 0.00017 kPa and 0.000355 ± 0.00011 kPa
975 K	0.000427 ± 0.00013 kPa
976 K	0.000501 ± 0.00015 kPa
977 K	0.000427 ± 0.00013 kPa and 0.000575 ± 0.00017 kPa
978 K	0.000617 ± 0.00019 kPa
980 K	0.000427 ± 0.00013 kPa
981 K	0.000661 ± 0.0002 kPa
983 K	0.000537 ± 0.00017 kPa and 0.000741 ± 0.00023 kPa
988 K	0.000871 ± 0.00027 kPa
989 K	0.000832 ± 0.00026 kPa
990 K	0.000912 ± 0.00028 kPa
991 K	0.001 ± 0.0003 kPa
992 K	0.00107 ± 0.00032 kPa
993 K	0.00107 ± 0.00032 kPa and 0.001 ± 0.0003 kPa
999 K	0.00115 ± 0.00035 kPa
1000 K	0.00126 ± 0.00038 kPa
1002 K	0.00132 ± 0.0004 kPa
1003 K	0.00138 ± 0.00042 kPa
1004 K	0.00148 ± 0.00045 kPa and 0.00158 ± 0.00048 kPa and 0.00129 ± 0.00039 kPa
1007 K	0.00155 ± 0.00047 kPa
1012 K	0.00174 ± 0.00052 kPa
1014 K	0.00166 ± 0.0005 kPa and 0.00209 ± 0.00063 kPa
1015 K	0.002 ± 0.00061 kPa and 0.00224 ± 0.00068 kPa
1019 K	0.00257 ± 0.00077 kPa
1020 K	0.00224 ± 0.00067 kPa
1024 K	0.0024 ± 0.00072 kPa
1025 K	0.00263 ± 0.00079 kPa and 0.00295 ± 0.00089 kPa
1030 K	0.00295 ± 0.00089 kPa
1032 K	0.00295 ± 0.00089 kPa
1035 K	0.00331 ± 0.001 kPa and 0.00417 ± 0.0013 kPa
1039 K	0.00398 ± 0.0012 kPa
1042 K	0.00537 ± 0.0016 kPa
1045 K	0.00468 ± 0.0014 kPa
1047 K	0.00575 ± 0.0017 kPa
1049 K	0.00575 ± 0.0017 kPa
1051 K	0.00676 ± 0.002 kPa
1054 K	0.00646 ± 0.0019 kPa
1058 K	0.00708 ± 0.0021 kPa
1059 K	0.00851 ± 0.0026 kPa and 0.00832 ± 0.0025 kPa
1064 K	0.00912 ± 0.0027 kPa
1067 K	0.01 ± 0.003 kPa
1068 K	0.011 ± 0.0033 kPa and 0.0115 ± 0.0035 kPa
1071 K	0.0112 ± 0.0034 kPa
1076 K	0.0141 ± 0.0043 kPa and 0.0129 ± 0.0039 kPa
1078 K	0.0141 ± 0.0043 kPa
1085 K	0.0182 ± 0.0055 kPa
1088 K	0.0174 ± 0.0052 kPa and 0.0158 ± 0.0048 kPa
1099 K	0.0229 ± 0.0069 kPa
1108 K	0.0288 ± 0.0087 kPa
